Read-outs that look alike come from different tables or passages of the source.
Key:
[1] = physchem; set-up: chemical stability in PBS at 37 °C, HPLC-MS/MS, half-life from first-order degradation plot; conditions: PBS
Protocol: (§1) In these assays, the variation of analytes concentration at four different incubation times both in PBS and in human plasma samples was monitored to evaluate their susceptibility toward spontaneous or enzymatic hydrolysis, respectively. By plotting any variation of analyte concentration vs. the incubation time, the corresponding degradation profiles in tested matrices were obtained. The analyte concentration (1 µM) used during the stability tests is generally smaller than its Michaelis–Menten constant (KM), and the enzymatic degradation rate is described by a first-order kinetic. Therefore, by plotting the natural logarithm of the quantitative data versus the incubation time, a linear function can be used, and its slope represents the degradation rate (k). Accordingly, with the linear function, the half-life (t1/2) of each tested compound can be calculated as follows: t1/2=[…] The plots of the natural logarithm of the quantitative data versus the incubation time of all the studied compounds were analyzed. […] Parameters beyond this value will be indicated as >120 min. […] The degradation plots in PBS and human plasma of our ester compounds are reported in Supporting Information (Figures S1–S6 and Table S1).

[2] = in vitro; set-up: stability in human plasma at 37 °C, HPLC-MS/MS, half-life from first-order degradation plot; conditions: plasma; human plasma; read-out: H-pl
Protocol: as §1

[3] = target: T1, Panx-1 (Mus musculus, UniProt Q9JIP4); test: two-electrode voltage clamp, Xenopus laevis oocytes, single dose […]; format: cell-based
T1 construct: gene Panx1
T1 sequence (Q9JIP4 whole entry): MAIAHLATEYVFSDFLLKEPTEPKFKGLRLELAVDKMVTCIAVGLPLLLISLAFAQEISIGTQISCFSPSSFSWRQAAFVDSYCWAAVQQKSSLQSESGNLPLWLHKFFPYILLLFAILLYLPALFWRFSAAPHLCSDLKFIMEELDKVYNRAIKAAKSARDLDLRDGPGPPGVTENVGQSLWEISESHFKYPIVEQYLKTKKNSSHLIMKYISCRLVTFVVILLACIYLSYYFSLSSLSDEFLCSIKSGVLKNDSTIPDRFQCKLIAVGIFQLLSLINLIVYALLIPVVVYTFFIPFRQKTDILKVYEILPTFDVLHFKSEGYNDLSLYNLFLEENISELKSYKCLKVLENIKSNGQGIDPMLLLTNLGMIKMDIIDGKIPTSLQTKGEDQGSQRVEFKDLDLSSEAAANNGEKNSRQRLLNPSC

[4] = target: T1, Panx-1; test: two-electrode voltage clamp, Xenopus laevis oocytes expressing mouse pannexin1; format: cell-based
[5] = target: T1, Panx-1; test: two-electrode voltage clamp in oocytes, […] CBX applied in each experiment; format: cell-based; conditions: read-out: % inhibition at 100 μM

Structure (SMILES)	half-life at 1 µM [1] [h]	half-life at 1 µM [2] [h]	IC50 [4] [µM]	also measured
CCOC(=O)c1cn(CCc2ccccc2)c2ccc([N+](=O)[O-])cc2c1=O [4b, Ethyl 6-nitro-4-oxo-1-phenethyl-1,4-dihydroquinoline-3-carboxylate]	> 2	> 2		
CCOC(=O)c1cn(CCCCc2ccccc2)c2ccc([N+](=O)[O-])cc2c1=O [4d, Ethyl 6-nitro-4-oxo-1-(4-phenylbutyl)-1,4-dihydroquinoline-3-carboxylate]	> 2	> 2		
CCOC(=O)c1cn(CCCCCc2ccccc2)c2ccc([N+](=O)[O-])cc2c1=O [4e, Ethyl 6-nitro-4-oxo-1-(5-phenylpentyl)-1,4-dihydroquinoline-3-carboxylate]	> 2	> 2		
CCOC(=O)c1cn(Cc2ccc(S(N)(=O)=O)cc2)c2ccc([N+](=O)[O-])cc2c1=O [4f, Ethyl 6-nitro-4-oxo-1-(4-sulfamoylbenzyl)-1,4-dihydroquinoline-3-carboxylate]	> 2	> 2		
O=C(O)c1cn(Cc2ccccc2)c2ccc([N+](=O)[O-])cc2c1=O [6a, 1-Benzyl-6-nitro-4-oxo-1,4-dihydroquinoline-3-carboxylic acid]				inhibition at 50 µM ([3]; read-out: TABLE 1): 53 ± 2.9%
NS(=O)(=O)c1ccc(Cn2cc(C(=O)O)c(=O)c3cc([N+](=O)[O-])ccc32)cc1 [6f, 6-Nitro-4-oxo-1-(4-sulfamoylbenzyl)-1,4-dihydroquinoline-3-carboxylic acid]			3	
O=C(O)c1ccc(Cn2cc(C(=O)O)c(=O)c3cc([N+](=O)[O-])ccc32)cc1 [6g, 1-(4-Carboxybenzyl)-6-nitro-4-oxo-1,4-dihydroquinoline-3-carboxylic acid]			1.5	
CCCNS(=O)(=O)c1ccc(Nc2c(C(=O)O)cnc3ccccc23)cc1 [13d, 4-[4-(N-Propylsulfamoyl)phenyl]aminoquinoline-3-carboxylic acid]				inhibition at 50 µM ([3]; read-out: TABLE 2): 66 ± 4%
CC1(C)[C@@H](OC(=O)CCC(=O)O)CC[C@]2(C)[C@H]3C(=O)C=C4[C@@H]5C[C@@](C)(C(=O)O)CC[C@]5(C)CC[C@@]4(C)[C@]3(C)CC[C@@H]12 [CBX, carbenoxolone]				inhibition at 100 µM [5]: 100%
Nc1ccc2c(c1)c(=O)c(C(=O)O)cn2Cc1ccccc1 [compound 8, 6-Amino-1-benzyl-4-oxo-1,4-dihydroquinoline-3-carboxylic acid]				inhibition at 50 µM ([3]; read-out: TABLE 1): 57 ± 5.9%

More lines, main results first:

half-life at 1 µM [1] [h]	half-life at 1 µM [2] [h]	IC50 [4] [µM]	Structure (SMILES)	also measured
		4.2	CCCN(CCC)S(=O)(=O)c1ccc(Nc2c(C(=O)O)cnc3ccccc23)cc1 [13e, 4-[4-(N,N-Dipropylsulfamoyl)phenyl]aminoquinoline-3-carboxylic acid]	
		15.5	O=C(O)c1ccc(Nc2c(C(=O)O)cnc3ccccc23)cc1 [13g, 4-[(4-Carboxyphenyl)amino]quinoline-3-carboxylic acid]	
